Where two headings read alike, the source gives them in different places.
How the values were obtained:
[1] = Effect on triglyceride level in animals on High Fat Diet; type: in vivo, mice; settings: 15 days
Procedure: Animals were placed on High Fat Diet (HFD) until they gain more than 20% of Body weight compared with animals on standard chow and reached glycemia levels ≥200 mg/dL (usually 4-6 weeks). Animals were randomly assigned to Control (obese group) receiving vehicle only (by gavage): n=12; (+)-Epicatechin—orally by gavage: n=10: (−)-Epicatechin—orally by gavage: n=10.
All animals were treated for 15 days and continued under HFD. The results are presented at FIG. 3.

[2] = Oral pharmacokinetic study in mice, plasma LC-MS/MS; type: in vivo; settings: 10 mpk, female Balb C mice
Procedure: Female Balb C mice 4 per group after overnight fasting were dosed orally (via gavage) with compound 1 in 5% NMP in normal saline (10 ml/kg). Blood was collected by serial bleeding at 0.16 hr, 0.5 hr, 1 hr, 2 hr, 4 hr, 6 hr, 8 hr in heparinized tubes. Blood samples were centrifuged at 10,000 rpm for 5 min. at 4° C. to obtain the plasma, which were aspirated into separate labeled tubes and stored at −80° C. 400 ng/ml of standard in acetonitrile was used as the drug extraction solvent for extracting drug from plasma. Extraction solvent was added to plasma was vortexed and shaken on shaker for 10 minutes, centrifuged at 10,000 rpm for 10 minutes at 4° C. Supernatant was kept for analysis.
Acetonitrile and plasma calibration curves were generated and percentage of drug recovery from plasma determined. Quantitative analysis was done by liquid chromatography tandem mass spectrometer (API3200 LC-MS/MS). Cmax, Tmax, AUC and t1/2 were calculated using Graph Pad PRISM version 5.04 and the results were depicted in Table 3.

[3] = test system: Electron Transport Chain Complex IV; assay: increase of the expression of Electron Transport Chain IV (ETC IV); type: cell-based; settings: for EC50: increase of expression of ETC IV, read-out: EC50 on mitochondrial ETC complexes: Electron Transport Chain Complex IV
Description: The present invention discloses a remarkable range of biological activity across the two enantiomers of epicatechin, something heretofore not described for flavonoids as a class. The enantiomer of (−)-epicatechin is (+)-epicatechin. […]

[4] = test system: AMP kinase; assay: cell-based fluorescent ELISA of AMP kinase phosphorylation status in cultured cells; settings: AMP kinase phosphorylation (pAMPK) in cultured cells
Procedure: The compounds of the present invention were tested for their activity on AMP kinase. The activity on AMP kinase was evaluated by quantitative fluorescent immunoenzymatic assay of AMP kinase phosphorylation status in cultured cells. The 5-AMP-activated protein kinase (AMP kinase) is a key sensor of intracellular energy balance. AMP kinase is activated in response to an increase in the AMP/ATP ratio which can be caused by a number of factors such as muscle contraction, starvation, or hypoxia. AMP kinase is a heterotrimeric protein complex comprising of (63 kDa),—(38 kDa) and—•(38 kDa) subunits. For each subunit, isoforms have been identified (1, 2, 1, 2, 1, 2, 3) which theoretically allow the formation of 12 different proteins. The -subunit contains a serine/threonine kinase domain and the regulatory subunits contain binding sites for AMP and ATP (-subunit) and for glycogen (-subunit). AMP kinase is activated by phosphorylation on Thr-172 within the catalytic domain. AMP binding results in a 2 to 5-fold increase in AMP kinase activity compared to the basal level. […]
BioAssay Systems' cell-based ELISA measure phosphorylated AMP kinase in whole cells and normalizes the signal to the total protein content. […] AMP kinase phosphorylation (pAMPK) is measured using a fluorescent ELISA followed by total protein measurement in each well.

Row | AUC [2] [µM·h] | Elimination t½ [2] [h] | EC50 [3] [µM] | AUC ([2]; mouse, 10 mg/kg, read-out: AUC) [µM·h] | half-life ([2]; mouse, 10 mg/kg, read-out: Elimination t½ (converted)) [h] | SMILES | improvement over (−)-epicatechin in dose giving the same triglyceride reduction ([1]; 0.003 vs 0.1 mg/Kg/day, oral) [fold] | reduction in triglyceride levels ([1]; (+)-epicatechin 0.003 mg/Kg/day vs (−)-epicatechin 0.1 mg/Kg/day, orally by gavage, FIG. 3 triglycerides content of livers) | fold more potent than (−)-epicatechin on increase of the expression of ETC IV ([3]; (+)-epicatechin versus (−)-epicatechin) | concentration at which AMPK activity is exhibited [4] [nM]
1 | 0.683 | 2.13 | 0.1 |  |  | Oc1cc(O)c2c(c1)O[C@@H](c1ccc(O)c(O)c1)[C@@H](O)C2 [(+)-Epicatechin] | > 30 | shows the same reduction in triglyceride levels as (−)-epicatechin | approximately 400 fold | 
2 |  |  | 40 |  |  | Oc1cc(O)c2c(c1)O[C@H](c1ccc(O)c(O)c1)[C@H](O)C2 [(−)-Epicatechin, reference compound] |  |  |  | 
3 |  |  |  | 2.8 | 4.5 | CCCCCCCC(=O)Oc1cc(O)cc2c1C[C@H](O)[C@H](c1ccc(O)c(O)c1)O2 [Compound 1001, (2S,3S)-2-(3,4-dihydroxyphenyl)-3,7-dihydroxychroman-5-yl octanoate] |  |  |  | 1

From patent US10898465B2, “Utility of (+) epicatechin and their analogs” (Epirium Bio Inc., priority 2016, dated 2021)
